Consider 2 compounds from patent US11459323B2, “Monocyclic β-lactam compound for treating bacterial infection” (MEDSHINE DISCOVERY INC., priority 2018, dated 2022).

Values after ≈ are worked out from the molar mass of the structure shown. Marks after values point to notes of the source that are not given here. A value given as a limit tells only on which side of the number the result lay.

What is called MIC is the lowest concentration that inhibits growth of the organism.

Assay [1] has as its system P. aeruginosa ATCC 35151. Kind of assay: MIC by micro-liquid dilution method (CLSI). The class given is cell-based. The note with it: Pseudomonas aeruginosa; P. aeruginosa ATCC35151; read-out: MIC.
For assay [2], the system named is A. baumannii ATCC 17978. Kind of assay: MIC by micro-liquid dilution method (CLSI). The class given is cell-based. The note with it: Acinetobacter baumannii; A. baumannii ATCC17978; read-out: MIC.
For assay [3], the system named is K. pneumoniae ATCC BAA-1705 (KPC-2). Kind of assay: MIC by micro-liquid dilution method (CLSI). The class given is cell-based, Klebsiella pneumonia. The note with it: Klebsiella pneumoniae, ATCCBAA1705; K. pneumoniae ATCCBAA-1705; read-out: MIC.
For assay [4], the system named is P. aeruginosa PA 14. The assay can be described thus: MIC by micro-liquid dilution method (CLSI). The class given is cell-based. The following applies: Pseudomonas aeruginosa, PA14; P. aeruginosa PA 14; read-out: MIC. From the text:
(§1) Three strains of Klebsiella pneumonia, K. pneumoniae ATCC BAA-205 (TEM-1/SHV-1/SHV-12), K. pneumoniae ATCC BAA-1705 (KPC-2), K. pneumoniae ATCC BAA-2470 (NDM-1); three strains of Pseudomonas aeruginosa, P. aeruginosa NCTC13437 (VIM-10; VEB-1), P. aeruginosa PA 14 and P. aeruginosa ATCC 35151; four strains of Escherichia coli, E. coli NCTC 13476 (IMP-1 type), E. coli ATCC BAA-2523 (OXA-48), E. coli MG1655Δtol C, E. coli ATCC 25922; one strain of Acinetobacter baumannii, A. baumannii ATCC 17978 and one strain of Staphylococcus aureus, S. aureus NRS384 were used to determine the minimum inhibitory concentration (MIC) of the compounds by micro-liquid dilution method according to the Institute of Clinical and Laboratory Standard (CLSI) requirements.

The test system of assay [5] is E. coli ATCC BAA-2523 (OXA-48). The assay can be described thus: MIC by micro-liquid dilution method (CLSI). The class given is cell-based. The following applies: Escherichia coli, ATCCBAA2523; E. coli ATCCBAA-2523; read-out: MIC.
From the text: as §1

For assay [6], the system named is E. coli NCTC 13476 (IMP-1 type). Kind of assay: MIC by micro-liquid dilution method (CLSI). The following applies: Escherichia coli; E. coli NCTC13476; read-out: MIC. The assay is classed as cell-based.
From the text: as §1

Assay [7] has as its system E. coli MG1655Δtol C. The assay can be described thus: MIC by micro-liquid dilution method (CLSI). The assay is classed as cell-based. The note with it: Escherichia coli.
From the text: as §1

Assay [8] relates to K. pneumoniae ATCC BAA-205 (TEM-1/SHV-1/SHV-12). Kind of assay: MIC by micro-liquid dilution method (CLSI). The class given is cell-based, Klebsiella pneumonia. The note with it: Klebsiella pneumoniae, ATCCBAA205; K. pneumoniae ATCCBAA-205; read-out: MIC.
In assay [9] the test system is K. pneumoniae ATCC BAA-2470 (NDM-1). The assay can be described thus: MIC by micro-liquid dilution method (CLSI). The class given is cell-based, Klebsiella pneumonia. The following applies: Klebsiella pneumoniae, ATCCBAA2470; K. pneumoniae ATCCBAA-2470; read-out: MIC.
In assay [10] the test system is E. coli ATCC 25922. Kind of assay: MIC by micro-liquid dilution method (CLSI). The note with it: Escherichia coli; E. coli ATCC25922; read-out: MIC. The class given is cell-based.
Assay [11] relates to Acinetobacter baumannii ATCC-BAA-1791. Kind of assay: MIC on Acinetobacter baumannii strains. The class given is cell-based. The note with it: ATCCBAA1791. The text has this:
(§2) Twelve strains of Acinetobacter baumannii, A. baumannii ATCC 17978 (ATCC-BAA-1605, ATCC-BAA-1789, ATCC-BAA-1790, ATCC-BAA-1791, ATCC-BAA-1792, ATCC-BAA-1793, ATCC-BAA-1794, ATCC-BAA-1795, ATCC-BAA-1799, ATCC-BAA-1800, ATCC 19606, ATCC 17978) were used to determine the minimum inhibitory concentration (MIC) of the compounds by micro-liquid dilution method according to the Institute of Clinical and Laboratory Standard (CLSI) requirements.

For assay [12], the system named is Acinetobacter baumannii ATCC-BAA-1793. The assay can be described thus: MIC on Acinetobacter baumannii strains. The assay is classed as cell-based. The note with it: ATCCBAA1793, ATCC-BAA-1793, read-out: MIC.
From the text: as §2

Assay [13] has as its system Acinetobacter baumannii ATCC-BAA-1800. The assay can be described thus: MIC on Acinetobacter baumannii strains. The class given is cell-based. The note with it: ATCCBAA1800, ATCC-BAA-1800, read-out: MIC.
From the text: as §2

Assay [14] has as its system Acinetobacter baumannii ATCC-BAA-1794. The assay can be described thus: MIC on Acinetobacter baumannii strains. The assay is classed as cell-based. The following applies: ATCCBAA1794, ATCC-BAA-1794, read-out: MIC.
From the text: as §2

For assay [15], the system named is Acinetobacter baumannii ATCC-BAA-1790. The assay can be described thus: MIC on Acinetobacter baumannii strains. The class given is cell-based. The note with it: ATCCBAA1790, ATCC-BAA-1790, read-out: MIC.
From the text: as §2

Assay [16] deals with Acinetobacter baumannii ATCC-BAA-1792. Kind of assay: MIC on Acinetobacter baumannii strains. The assay is classed as cell-based. The following applies: ATCCBAA1792, ATCC-BAA-1792, read-out: MIC.
From the text: as §2

For assay [17], the system named is Acinetobacter baumannii ATCC-BAA-1799. Kind of assay: MIC on Acinetobacter baumannii strains. The class given is cell-based. The note with it: ATCCBAA1799, ATCC-BAA-1799, read-out: MIC.
From the text: as §2

Assay [18] concerns Acinetobacter baumannii ATCC-BAA-1789. The assay can be described thus: MIC on Acinetobacter baumannii strains. The assay is classed as cell-based. The note with it: ATCCBAA1789.
From the text: as §2

Assay [19] relates to Acinetobacter baumannii ATCC-BAA-1795. Kind of assay: MIC on Acinetobacter baumannii strains. The assay is classed as cell-based. The note with it: ATCCBAA1795.
From the text: as §2

Assay [20] relates to Acinetobacter baumannii ATCC 17978. Kind of assay: MIC on Acinetobacter baumannii strains. The assay is classed as cell-based. The following applies: ATCC17978.
From the text: as §2

The test system of assay [21] is Acinetobacter baumannii ATCC 19606. The assay can be described thus: MIC on Acinetobacter baumannii strains. The class given is cell-based. The following applies: ATCC19606.
From the text: as §2

Assay [22] concerns Acinetobacter baumannii ATCC-BAA-1605. The assay can be described thus: MIC on Acinetobacter baumannii strains. The assay is classed as cell-based. The note with it: ATCCBAA1605, ATCC-BAA-1605, read-out: MIC.
From the text: as §2

Assay [23] relates to Pseudomonas aeruginosa PA14. Kind of assay: Lungs of immunosuppressed mice infected with Pseudomonas aeruginosa (1), lung bacterial load. The class given is in vivo. The following applies: 24 hours after infection, day, ip at 2 h, 4 h, 6 h, 8 h. The protocol:
Pseudomonas aeruginosa PA14. 64 mice were intraperitoneally injected with 150 mg/kg cyclophosphamide on the first day and the fourth day to give immunosuppressed mice. […] [table] The mice were injected with 50 μL of bacterial solution (2×10^3 CFU) through the airway. 2 hours after the infection, 4 mice in the model group was sacrificed by removing cervical vertebra. Two hours after infection, the drugs were administered by groups, and the mice were administered intraperitoneally once at 2 hours, 4 hours, 6 hours, and 8 hours, a total of 4 times. Mice of each group were sacrificed by removing cervical vertebra 24 hours after infection, lung and kidney tissues were taken aseptically and put into sterilized tissue homogenate tubes, weighed, and an appropriate amount of normal saline (NS) was added, the mixture was homogenized by a homogenizer for 1 min, the lung tissues of the model group were diluted 10^4, 10^5, 10^6 times, the lung tissues of each administration group were diluted 10, 100 times, the kidney tissues of the model group were diluted 10^2, […], 10^4 times, and the lung tissues of each administration group were diluted 10 times, the obtained mixtures were coated on TSA plates using spiral coater, then incubated at 37° C. overnight, and the CFU was counted with a colony counter. Graphpad Prism mapping software was used to make scatter plots of lung tissue CFU. SPSS19.0 software was used to count CFU and average body weight, and analysis of variance was used to analyze differences between groups.

Assay [24] concerns Pseudomonas aeruginosa PA14. Kind of assay: Lungs of immunosuppressed mice infected with Pseudomonas aeruginosa (2), lung bacterial load. The assay is classed as in vivo. The note with it: 24 hours after infection, total dosage 60 mg/kg, day, ip at 2 h, 4 h, 6 h, 8 h. Here is the method: Pseudomonas aeruginosa PA14. 60 mice were intraperitoneally injected with 150 mg/kg cyclophosphamide on day 1 and day 4 to give immunosuppressed mice. […] [table] The mice were injected with 50 μL of bacterial solution (2×10^3 CFU) through the airway. 2 hours after the infection, 4 mice in the model group was sacrificed by removing cervical vertebra. Two hours after infection, the drugs were administered by groups, and the mice were administered intraperitoneally once at 2 hours, 4 hours, 6 hours, and 8 hours, a total of 4 times. Mice of each group were sacrificed by removing cervical vertebra 24 hours after infection, lung and kidney tissues were taken aseptically and put into a sterilized tissue homogenate tube, weighed, and an appropriate amount of normal saline (NS) was added, the mixture was homogenized by a homogenizer for 1 min, the lung tissues of the model group were diluted 10^4, 10^5, 10^6 times, the lung tissues of each administration group were diluted 10, 100 times, the kidney tissues of the model group were diluted 10^2, 10^3, 10^4 times, and the lung tissues of each administration group were diluted 10 times, the obtained mixtures were coated on TSA plates using spiral coater, then incubated at 37° C. overnight, and the CFU was counted with a colony counter. Graphpad Prism mapping software was used to make scatter plots of lung tissue CFU. SPSS19.0 software was used to count CFU and average body weight, and analysis of variance was used to analyze differences between groups.

For `CC1(C)[C@H](NC(=O)/C(=N\OCCOc2ccc3c(c2)CCN(CCCNC(=N)N)C3)c2csc(N)n2)C(=O)N1OS(=O)(=O)O` [Compound 7], the MIC in assay [1] came to 0.5 µg/mL (≈ 0.765 µM); in [2] it was 1 µg/mL (≈ 1.53 µM); in assay [3], 4 µg/mL (≈ 6.12 µM); in [4], 16 µg/mL (≈ 24.5 µM); in assay [5], 0.25 µg/mL (≈ 0.382 µM); in assay [6], 1 µg/mL (≈ 1.53 µM). Moreover, the MIC in assay [7] was at most 0.125 µg/mL; in assay [8] it was 8 µg/mL (≈ 12.2 µM); in [9] it was 2 µg/mL (≈ 3.06 µM); in assay [10] it was 0.5 µg/mL (≈ 0.765 µM); in [11], 2 µg/mL (≈ 3.06 µM); in assay [12], 4 µg/mL (≈ 6.12 µM). Besides, the MIC worked out at 4 µg/mL (≈ 6.12 µM) in assay [13]; 4 µg/mL (≈ 6.12 µM) in [14]; 8 µg/mL (≈ 12.2 µM) in [15]; 8 µg/mL (≈ 12.2 µM) in assay [16]; 8 µg/mL (≈ 12.2 µM) in [17]; 8 µg/mL (≈ 12.2 µM) in [18]. For the same compound, the MIC worked out at 4 µg/mL (≈ 6.12 µM) in [19], 2 µg/mL (≈ 3.06 µM) in assay [20], 8 µg/mL (≈ 12.2 µM) in assay [21] and 8 µg/mL (≈ 12.2 µM) in [22].
For the compound `CC1(C)[C@H](NC(=O)/C(=N\O[C@@H](COc2ccc(C(=N)N[C@@H]3CCCNC3)cc2)C(=O)O)c2csc(N)n2)C(=O)N1OS(=O)(=O)O` [I-g, reference compound], the LOG10-of bacterial load in assay [23] (total dosage 120 mg/kg) was 1.58 ± 2.45; in assay [23] (total dosage 200 mg/kg) it was 0**; in [24], 1.65 ± 1.39.
